Test results reported in the supplement of paper PMC10307832.

Assays:
Test in all cases: relative viability (nuclei count vs DMSO), 5 days (fraction); higher = more cells survive
Zebularine + Pictilisib = compound: O=c1ncccn1[C@@H]1O[C@H](CO)[C@@H](O)[C@H]1O [Zebularine] + CS(=O)(=O)N1CCN(Cc2cc3nc(-c4cccc5[nH]ncc45)nc(N4CCOCC4)c3s2)CC1 [Pictilisib] (partner 1 µM)
Summary of the method: (§1)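 One day after seeding in 1536-well plates, lung cancer cell lines were dosed by pin tool. Dosing was either single-drug or a fixed anchor-drug dose plus five library-drug doses (not always all listed) in √10 steps. After 5 days, nuclei were stained in one fix-and-stain step and counted on 4× images, and relative viability is the nuclei count of treated wells over that of vehicle wells, given as the median of duplicate plates.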

BI-D1870 + Trametinib = compound: CC(C)CCN1c2nc(Nc3cc(F)c(O)c(F)c3)ncc2N(C)C(=O)C1C [BI-D1870] + CC(=O)Nc1cccc(-n2c(=O)n(C3CC3)c(=O)c3c(Nc4ccc(I)cc4F)n(C)c(=O)c(C)c32)c1 [Trametinib] (partner 0.02 µM)
Summary of the method: as §1

Zebularine + Olaparib = compound: O=c1ncccn1[C@@H]1O[C@H](CO)[C@@H](O)[C@H]1O [Zebularine] + O=C(c1cc(Cc2n[nH]c(=O)c3ccccc23)ccc1F)N1CCN(C(=O)C2CC2)CC1 [Olaparib] (partner 8 µM)
Summary of the method: as §1

BI-D1870 + Luminespib = compound: CC(C)CCN1c2nc(Nc3cc(F)c(O)c(F)c3)ncc2N(C)C(=O)C1C [BI-D1870] + CCNC(=O)c1noc(-c2cc(C(C)C)c(O)cc2O)c1-c1ccc(CN2CCOCC2)cc1 [Luminespib] (partner 0.01 µM)
Summary of the method: as §1

Cell Line	relative viability (Zebularine + Pictilisib; first compound 1 µM)	relative viability (Zebularine + Pictilisib; first compound 3.162 µM)	relative viability (Zebularine + Pictilisib; first compound 10 µM)	relative viability (Zebularine + Pictilisib; first compound 31.62 µM)	relative viability (Zebularine + Pictilisib; first compound 100 µM)	relative viability (BI-D1870 + Trametinib; first compound 0.04 µM)	relative viability (BI-D1870 + Trametinib; first compound 0.1265 µM)	relative viability (BI-D1870 + Trametinib; first compound 0.4 µM)	relative viability (BI-D1870 + Trametinib; first compound 1.265 µM)	relative viability (BI-D1870 + Trametinib; first compound 4 µM)	relative viability (Zebularine + Olaparib; first compound 1 µM)	relative viability (Zebularine + Olaparib; first compound 3.162 µM)	relative viability (Zebularine + Olaparib; first compound 31.62 µM)	relative viability (Zebularine + Olaparib; first compound 100 µM)	relative viability (Zebularine + Olaparib; first compound 10 µM)	relative viability (BI-D1870 + Luminespib; first compound 0.04 µM)	relative viability (BI-D1870 + Luminespib; first compound 0.1265 µM)	relative viability (BI-D1870 + Luminespib; first compound 0.4 µM)	relative viability (BI-D1870 + Luminespib; first compound 1.265 µM)	relative viability (BI-D1870 + Luminespib; first compound 4 µM)
HCC-78	0.223	0.192	0.211	0.254	0.197	0.526	0.655	0.675	1.03	0.569	0.76	0.652	0.444	0.291	–	–	–	–	–	–
HCC-366	0.16	0.133	0.119	0.177	0.124	0.347	0.311	0.328	0.39	0.221	0.411	0.294	0.103	0.108	0.186	–	–	–	–	–
HCC-827	1.19	0.977	0.835	0.738	0.544	0.551	0.495	0.463	0.456	0.432	0.752	0.607	0.415	0.252	0.487	0.629	0.672	0.681	0.736	0.714
HOP-62	0.579	0.608	0.284	0.287	0.175	0.429	0.332	0.331	0.367	0.299	0.169	0.35	0.163	0.16	0.257	0.989	0.929	0.88	0.95	0.866
IA-LM	0.394	0.325	–	0.37	0.292	–	–	–	–	–	0.889	0.828	1.04	0.401	–	–	–	–	–	–
LC-2-ad	0.509	0.421	0.399	0.258	0.158	0.897	0.848	0.957	0.956	0.882	0.729	0.681	0.201	0.254	0.434	1.2	0.953	0.943	0.911	0.769
LCLC-97TM1	0.184	0.081	0.138	0.124	0.104	0.214	0.181	0.174	0.221	0.146	0.404	0.289	0.104	0.119	0.138	0.892	0.775	0.769	0.918	0.846
LCLC-103H	0.564	0.603	0.513	0.612	0.553	0.692	0.616	0.653	0.7	0.63	0.839	0.829	0.632	0.637	0.597	0.989	0.753	0.888	1.07	0.934
LK-2	0.617	0.747	0.266	0.383	0.36	0.864	0.8	0.786	0.97	0.649	0.884	0.714	0.259	0.221	0.335	0.204	0.19	0.185	0.169	0.212
LOU-NH91	0.52	0.471	0.498	0.505	0.451	0.842	0.762	0.788	0.761	0.651	0.906	0.891	0.775	0.469	0.704	0.366	0.33	0.315	0.351	0.264
LU99A	0.329	0.305	0.324	0.283	0.198	0.513	0.436	0.519	0.511	0.533	0.306	0.243	0.182	0.135	0.245	0.263	0.223	0.276	0.258	0.229
LXF-289	0.908	0.769	0.792	0.687	0.294	0.755	0.608	0.71	0.738	0.612	1.06	0.995	0.31	0.275	0.549	0.809	0.607	0.674	0.74	0.533
NCI-H23	0.536	0.444	–	0.499	0.436	0.39	0.342	0.385	0.329	0.295	0.318	0.132	0.276	0.258	–	0.237	0.222	0.232	0.217	0.24
NCI-H522	–	–	–	–	–	0.69	0.764	0.722	0.836	0.776	0.746	0.647	0.546	0.573	0.577	0.929	1.05	0.989	1.24	1.29
NCI-H1299	0.75	0.761	0.543	0.739	0.264	–	–	–	–	–	1.06	0.893	0.805	0.447	0.852	–	–	–	–	–
NCI-H1563	0.645	0.607	0.636	0.674	0.706	–	–	–	–	–	–	–	–	–	–	0.512	0.481	0.502	0.521	0.526
NCI-H1623	–	–	–	–	–	–	–	–	–	–	–	–	–	–	–	0.597	0.521	0.625	0.462	0.499
NCI-H1648	–	–	–	–	–	0.445	0.54	–	0.552	0.49	0.588	0.852	0.7	0.471	0.643	–	–	–	–	–
NCI-H1703	0.267	–	–	0.265	0.239	–	–	–	–	–	0.468	0.552	0.395	0.321	0.339	–	–	–	–	–
NCI-H2342	–	–	–	–	–	0.794	0.805	0.881	1	1.01	0.462	0.468	0.437	0.365	0.388	0.706	0.718	0.711	0.758	0.907
SW 900	–	–	–	–	–	0.883	0.83	0.858	0.762	0.984	1.04	0.889	0.773	0.479	–	0.193	0.192	0.18	0.175	0.158
